Data taken from US20030216324A1, “Airway mucus secretion inhibitors” (priority 2000, published 2003).

Legend:
[1] = system: augmentative airway mucus secretion; details: airway inflammation model by ozone exposure (lesion similar to chronic bronchitis); cited from earlier work
[2] = system: augmentative mucus secretion in guinea pig trachea; experiment: Suppressive effect on augmentative secretion by antigen challenge (ovalbumin-sensitized guinea pig, mucus score by PAS-Alcian Blue); format: in vivo; details: OA-sensitized guinea pig; test drug 100 mg/kg oral; 5% OA inhaled 30 minutes after drug; trachea removed 10 minutes later
Description: Suppressive Effect on Augmentative Secretion by Antigen Challenge
Egg albumin (Ovalbumin:OA) (70 mg/kg) is administered and sensitized to guinea pig into the peritoneal cavity on the first experiment day and 8th day. The test drug (100 mg/kg) was oral administered to the sensitized guinea pig on 22nd experiment day. 5%OA was inhaled for 2 minutes 30 minutes after the test drug was administered, and the trachea was removed 10 minutes later. It was dyed with PAS-Alcian Blue, and the augmentative mucus secretion was evaluated according to the level of the decrease in mucus score.
As a test drug, 2-[5-amino-6-oxo-2-phenyl-1,6-dihydro-1-pyrimidinyl]-N-[1-[[5-(t-butyl)-1,3,4-oxadiazole-2-yl]carbonyl]-2-methylpropyl]acetamide (Compound 34) was used.

SMILES | augmentative airway mucus secretion [1] | mucus score (augmentative mucus secretion, PAS-Alcian Blue dye) [2]
CC(C)(C)C(=O)Oc1ccc(S(=O)(=O)Nc2ccccc2C(=O)NCC(=O)O)cc1 [ONO-5046] | suppress | 
CC(C)C(NC(=O)Cn1c(-c2ccccc2)ncc(N)c1=O)C(=O)c1nnc(C(C)(C)C)o1 (centres unmarked) [Compound 34, 2-[5-amino-6-oxo-2-phenyl-1,6-dihydro-1-pyrimidinyl]-N-[1-[[5-(t-butyl)-1,3,4-oxadiazole-2-yl]carbonyl]-2-methylpropyl]acetamide] |  | intentionally suppressed
